The values below come from patent publication US20250312499A1, “KISSPEPTIN RECEPTOR (KISS1R) TARGETED THERAPEUTICS AND USES THEREOF” (priority 2024, published 2025).

The assay concerns the target human kisspeptin receptor (Homo sapiens (Human), UniProt Q969F8). Nature of the assay: Human KISS1R binding assay (membrane competition binding). To be noted: 90 min at room temperature; competition with 0.2 nM [125I]-metastin (45-54); Flp-In T-Rex 293 kisspeptin membranes; metal complexes nonradioactive Ga, In, Lu; read-out: hKiSSR Binding Ki (90 min). Put shortly: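 Membranes from tetracycline-induced (48 h) Flp-In T-Rex 293 cells expressing receptor, 5–10 μg, incubated 90 min at room temperature with 0.2 nM [125I]-metastin (45-54) and competitor (typically 0–10,000 nM) in Tris/Mg/Ca/EGTA/0.1% BSA, pH 7.4. Filtration, washing, counting; Ki by non-linear regression.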

Molecules are shown by their SMILES. Numbered stars: 1 amine (or outer) side, 2 acyl side, 3 side chain; on linkers, the order of the positions; unused ones are H or OH. Square brackets hold non-standard residues; d marks the D form. Peptide text beside a SMILES is read from it. * marks the point of attachment. DOTA = O=C(O)CN1CCN(CC(=O)O)CCN(CC(=O)*)CCN(CC(=O)O)CC1; Ala(9-anthryl) = N[C@@H](Cc1c2ccccc2cc2ccccc12)C(=O)O; Gly(N-(3-F-4-Me-benzyl)) = Cc1ccc(CNCC(=O)*)cc1F; Gly(N-3-F-4-Me-benzyl) = Cc1ccc(CNCC(=O)O)cc1F; Api(1-amidino) = N=C(N)N1CCC(N)(C(=O)O)CC1; X14 = O=C([C@H]1CC[C@@H](CN[*:1])CC1)[*:2]; Bip = N[C@@H](Cc1ccc(-c2ccccc2)cc1)C(=O)O; Hydrocinnamoyl(4-I) = O=C(CCc1ccc(I)cc1)*; Phe(3-F) = N[C@@H](Cc1cccc(F)c1)C(=O)O; d2Nal = N[C@H](Cc1ccc2ccccc2c1)C(=O)O; 4Pal = N[C@@H](Cc1ccncc1)C(=O)O; d4Pal = N[C@H](Cc1ccncc1)C(=O)O; Cha = N[C@@H](CC1CCCCC1)C(=O)O; 4Amb = NCc1ccc(C(=O)O)cc1; Api = NC1(C(=O)O)CCNCC1; PEG2 = NCCOCCOCCC(=O)O; Ahx = NCCCCCC(=O)O; azaGly = NNC(=O)O; βAla = NCCC(=O)O; Sar = CNCC(=O)O

Chain of human kisspeptin receptor (Q969F8 whole entry): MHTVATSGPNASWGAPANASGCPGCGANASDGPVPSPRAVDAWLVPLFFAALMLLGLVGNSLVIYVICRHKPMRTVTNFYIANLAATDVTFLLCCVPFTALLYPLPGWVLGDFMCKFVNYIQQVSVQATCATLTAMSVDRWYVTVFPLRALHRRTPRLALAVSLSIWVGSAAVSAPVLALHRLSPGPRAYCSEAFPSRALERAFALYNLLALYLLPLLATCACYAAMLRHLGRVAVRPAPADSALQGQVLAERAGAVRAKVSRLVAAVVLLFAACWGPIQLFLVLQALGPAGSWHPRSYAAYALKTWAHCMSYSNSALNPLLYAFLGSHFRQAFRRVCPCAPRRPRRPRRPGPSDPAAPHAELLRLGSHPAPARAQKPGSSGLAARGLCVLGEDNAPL

`CC(C)C[C@H](NC(=O)NNC(=O)[C@H](CC1CCCCC1)NC(=O)[C@@H](NC(=O)[C@H](CC(N)=O)NC(=O)[C@H](CCCCNC(=O)CN1CCN(CC(=O)O)CCN(CC(=O)O)CCN(CC(=O)O)CC1)NC(=O)[C@@H](Cc1ccc(O)cc1)NC(=O)CCOCCOCCNC(=O)CCc1ccc(I)cc1)[C@@H](C)O)C(=O)NC1(C(=O)N[C@@H](Cc2c[nH]c3ccccc23)C(N)=O)CCN(C(=N)N)CC1` [Compound 327] ({Hydrocinnamoyl(4-I)-PEG2}-[dY]K(DOTA)NT[Cha][azaGly]L[Api(1-amidino)]W-NH2): the Ki is less than 10 nM.

For the molecule `CC(C)C[C@H](NC(=O)NNC(=O)[C@H](Cc1ccccc1)NC(=O)[C@@H](NC(=O)[C@H](CC(N)=O)NC(=O)c1ccc(CNC(=O)CN2CCN(CC(=O)O)CCN(CC(=O)O)CCN(CC(=O)O)CC2)cc1)[C@@H](C)O)C(=O)NC1(C(=O)N[C@@H](Cc2ccncc2)C(N)=O)CCN(C(=N)N)CC1` [Compound 272] ({DOTA-4Amb}-NTF[azaGly]L[Api(1-amidino)][4Pal]-NH2), the Ki is less than 10 nM.

With `Cc1ccc(CNCC(=O)N2CCC(NC(=O)[C@H](CC(C)C)NC(=O)NNC(=O)[C@H](Cc3ccccc3)NC(=O)[C@@H](NC(=O)[C@H](CC(N)=O)NC(=O)[C@@H](Cc3c[nH]c4ccccc34)NC(=O)[C@@H](Cc3ccc(O)cc3)NC(=O)CCCCCNC(=O)CN3CCN(CC(=O)O)CCN(CC(=O)O)CCN(CC(=O)O)CC3)[C@@H](C)O)(C(=O)N[C@@H](Cc3c[nH]c4ccccc34)C(N)=O)CC2)cc1F` [Compound 1] ({DOTA-Ahx}-[dY][dW]NTF[azaGly]L[Api](Gly(N-(3-F-4-Me-benzyl)))W-NH2), the Ki was less than 10 nM.

Regarding `Cc1ccc(CNCC(=O)N2CCC(NC(=O)[C@H](CC(C)C)NC(=O)NNC(=O)[C@H](Cc3cccc(F)c3)NC(=O)[C@@H](NC(=O)[C@H](CC(N)=O)NC(=O)[C@H](CCC(=O)O)NC(=O)[C@H]3CC[C@@H](CNC(=O)CN4CCN(CC(=O)O)CCN(CC(=O)O)CCN(CC(=O)O)CC4)CC3)[C@@H](C)O)(C(=O)N[C@@H](Cc3ccncc3)C(N)=O)CC2)cc1F` [Compound 170] ({DOTA}-[X14]ENT[Phe(3-F)][azaGly]L[Api](Gly(N-(3-F-4-Me-benzyl)))[4Pal]-NH2), the Ki is less than 10 nM.

As to `Cc1ccc(CNCC(=O)N2CCC(NC(=O)[C@H](CC(C)C)SCCNC(=O)[C@H](Cc3ccccc3)NC(=O)CCCCCNC(=O)CN3CCN(CC(=O)O)CCN(CC(=O)O)CCN(CC(=O)O)CC3)(C(=O)N[C@@H](Cc3c[nH]c4ccccc34)C(N)=O)CC2)cc1F` [Compound 8], the Ki was less than 10 nM.

As to `CC(C)C[C@H](NC(=O)NNC(=O)[C@H](Cc1ccccc1)NC(=O)[C@@H](NC(=O)[C@H](CC(N)=O)NC(=O)[C@@H](Cc1ccc2ccccc2c1)NC(=O)[C@H](N)Cc1ccc(O)cc1)[C@@H](C)O)C(=O)NC1(C(=O)N[C@@H](Cc2ccccc2)C(N)=O)CCN(C(=N)N)CC1` [Compound 409] (H-[dY][d2Nal]NTF[azaGly]L[Api(1-amidino)]F-NH2), the inhibitory constant (Ki) was less than 10 nM.

As for `CC(C)C[C@H](NC(=O)NNC(=O)[C@H](Cc1ccccc1)NC(=O)[C@@H](NC(=O)[C@H](CC(N)=O)NC(=O)[C@H](Cc1c2ccccc2cc2ccccc12)NC(=O)[C@@H](Cc1ccc(O)cc1)NC(=O)CN1CCN(CC(=O)O)CCN(CC(=O)O)CCN(CC(=O)O)CC1)[C@@H](C)O)C(=O)NC1(C(=O)N[C@@H](Cc2ccncc2)C(N)=O)CCN(C(=N)N)CC1` [Compound 221] ({DOTA}-[dY][Ala(9-anthryl)]NTF[azaGly]L[Api(1-amidino)][4Pal]-NH2), the Ki is less than 10 nM.

With `Cc1ccc(CNCC(=O)N2CCC(NC(=O)[C@H](CC(C)C)NC(=O)NNC(=O)[C@H](Cc3ccccc3)NC(=O)[C@@H](CC(N)=O)NC(=O)[C@@H](CC(N)=O)NC(=O)[C@@H](CC(N)=O)NC(=O)[C@@H](CC(N)=O)NC(=O)[C@@H](CC(N)=O)NC(=O)CCNC(=O)CN3CCN(CC(=O)O)CCN(CC(=O)O)CCN(CC(=O)O)CC3)(C(=O)N[C@@H](Cc3c[nH]c4ccccc34)C(N)=O)CC2)cc1F` [Compound 14] ({DOTA-βAla}-[dN][dN][dN][dN][dN]F[azaGly]L[Api](Gly(N-(3-F-4-Me-benzyl)))W-NH2), the inhibition constant (Ki) was in the range of 10 to 100 nM.

With `CNCC(=O)N1CCC(NC(=O)[C@H](CC(C)C)NC(=O)NNC(=O)[C@H](Cc2ccccc2)NC(=O)[C@@H](NC(=O)[C@H](CC(N)=O)NC(=O)[C@@H](Cc2ccc3ccccc3c2)NC(=O)[C@H](N)Cc2ccc(O)cc2)[C@@H](C)O)(C(=O)N[C@@H](Cc2ccc(O)cc2)C(N)=O)CC1` [Compound 407] (H-[dY][d2Nal]NTF[azaGly]L[Api](Sar)Y-NH2), the inhibition constant Ki is less than 10 nM.

On to `CC(C)C[C@H](NC(=O)NNC(=O)[C@H](Cc1ccccc1)NC(=O)[C@@H](NC(=O)[C@H](CC(N)=O)NC(=O)[C@H](Cc1ccc(-c2ccccc2)cc1)NC(=O)[C@@H](Cc1ccc(O)cc1)NC(=O)CCCCCNC(=O)CN1CCN(CC(=O)O)CCN(CC(=O)O)CCN(CC(=O)O)CC1)[C@@H](C)O)C(=O)NC1(C(=O)N[C@@H](Cc2c[nH]c3ccccc23)C(N)=O)CCN(C(=N)N)CC1` [Compound 198] ({DOTA-Ahx}-[dY][Bip]NTF[azaGly]L[Api(1-amidino)]W-NH2), for which the Ki is less than 10 nM.

For `CNCC(=O)N1CCC(NC(=O)[C@H](CC(C)C)NC(=O)NNC(=O)[C@H](Cc2ccccc2)NC(=O)[C@@H](NC(=O)[C@H](CC(N)=O)NC(=O)[C@H](CCCCNC(=O)CN2CCN(CC(=O)O)CCN(CC(=O)O)CCN(CC(=O)O)CC2)NC(=O)[C@@H](Cc2ccc(O)cc2)NC(=O)CCOCCOCCNC(=O)CNCc2ccc(C)c(F)c2)[C@@H](C)O)(C(=O)N[C@H](Cc2c[nH]c3ccccc23)C(N)=O)CC1` [Compound 359] (H-[Gly(N-3-F-4-Me-benzyl)][PEG2][dY]K(DOTA)NTF[azaGly]L[Api](Sar)[dW]-NH2), the inhibition constant (Ki) was less than 10 nM.

For the molecule `CC(C)C[C@H](NC(=O)NNC(=O)[C@H](Cc1ccccc1)NC(=O)CCCCCNC(=O)CN1CCN(CC(=O)O)CCN(CC(=O)O)CCN(CC(=O)O)CC1)C(=O)NC1(C(=O)N[C@@H](Cc2c[nH]c3ccccc23)C(N)=O)CCN(C(=N)N)CC1` [Compound 5] ({DOTA-Ahx}-F[azaGly]L[Api(1-amidino)]W-NH2), the inhibitory constant (Ki) was 10 to 100 nM.

Regarding `CC(C)C[C@H](NC(=O)NNC(=O)[C@H](Cc1ccccc1)NC(=O)[C@@H](NC(=O)[C@H](CC(N)=O)NC(=O)[C@@H](Cc1ccc2ccccc2c1)NC(=O)[C@@H](Cc1ccc(O)cc1)NC(=O)CCCCCNC(=O)CN1CCN(CC(=O)O)CCN(CC(=O)O)CCN(CC(=O)O)CC1)[C@@H](C)O)C(=O)NC1(C(=O)N[C@@H](Cc2ccccc2)C(N)=O)CCN(C(=N)N)CC1` [Compound 300] ({DOTA-Ahx}-[dY][d2Nal]NTF[azaGly]L[Api(1-amidino)]F-NH2), the Ki is less than 10 nM.

`Cc1ccc(CNCC(=O)N2CCC(NC(=O)[C@H](CC(C)C)NC(=O)NNC(=O)[C@H](Cc3ccccc3)NC(=O)[C@@H](NC(=O)[C@H](CC(N)=O)NC(=O)[C@@H](Cc3ccncc3)NC(=O)[C@@H](Cc3ccc(O)cc3)NC(=O)CN3CCN(CC(=O)O)CCN(CC(=O)O)CCN(CC(=O)O)CC3)[C@@H](C)O)(C(=O)N[C@@H](Cc3c[nH]c4ccccc34)C(N)=O)CC2)cc1F` [Compound 23] ({DOTA}-[dY][d4Pal]NTF[azaGly]L[Api](Gly(N-(3-F-4-Me-benzyl)))W-NH2): the inhibition constant Ki is less than 10 nM.

For `Cc1ccc(CNCC(=O)N2CCC(NC(=O)[C@H](CC(C)C)NC(=O)NNC(=O)[C@H](Cc3ccccc3)NC(=O)[C@@H](NC(=O)[C@H](CC(N)=O)NC(=O)[C@@H](Cc3c[nH]c4ccccc34)NC(=O)[C@@H](Cc3ccc(O)cc3)NC(=O)CCOCCOCCNC(=O)CN3CCN(CC(=O)O)CCN(CC(=O)O)CCN(CC(=O)O)CC3)[C@@H](C)O)(C(=O)N[C@@H](Cc3c[nH]c4ccccc34)C(N)=O)CC2)cc1F` [Compound 382] ({DOTA-PEG2}-[dY][dW]NTF[azaGly]L[Api](Gly(N-(3-F-4-Me-benzyl)))W-NH2), the Ki is less than 10 nM.

As to `Cc1ccc(CNCC(=O)N2CCC(NC(=O)[C@H](CC(C)C)NC(=O)NNC(=O)[C@H](Cc3ccccc3)NC(=O)CCCCCNC(=O)[C@@H](Cc3ccncc3)NC(=O)[C@@H](Cc3ccc(O)cc3)NC(=O)CN3CCN(CC(=O)O)CCN(CC(=O)O)CCN(CC(=O)O)CC3)(C(=O)N[C@@H](Cc3c[nH]c4ccccc34)C(N)=O)CC2)cc1F` [Compound 186] ({DOTA}-[dY][d4Pal][Ahx]F[azaGly]L[Api](Gly(N-(3-F-4-Me-benzyl)))W-NH2), the Ki is less than 10 nM.

`CC(=O)N[C@H](Cc1ccc(O)cc1)C(=O)N[C@H](Cc1c[nH]c2ccccc12)C(=O)N[C@@H](CC(N)=O)C(=O)N[C@H](C(=O)N[C@@H](Cc1ccccc1)C(=O)NNC(=O)N[C@@H](CC(C)C)C(=O)NC1(C(=O)N[C@@H](Cc2c[nH]c3ccccc23)C(N)=O)CCN(C(=O)CNCc2ccc(C)c(F)c2)CC1)[C@@H](C)O` [Compound 390] (Ac-[dY][dW]NTF[azaGly]L[Api](Gly(N-(3-F-4-Me-benzyl)))W-NH2): the Ki is less than 10 nM.

For `CC(C)C[C@H](NC(=O)NNC(=O)[C@H](Cc1ccccc1)NC(=O)[C@@H](NC(=O)[C@H](CC(N)=O)NC(=O)[C@@H](Cc1ccc2ccccc2c1)NC(=O)CN1CCN(CC(=O)O)CCN(CC(=O)O)CCN(CC(=O)O)CC1)[C@@H](C)O)C(=O)NC1(C(=O)N[C@@H](Cc2ccccc2)C(N)=O)CCN(C(=N)N)CC1` [Compound 302] ({DOTA}-[d2Nal]NTF[azaGly]L[Api(1-amidino)]F-NH2), the inhibitory constant (Ki) is less than 10 nM.

Turning to `CC(C)C[C@H](NC(=O)NNC(=O)[C@H](Cc1ccccc1)NC(=O)[C@@H](NC(=O)[C@H](CC(N)=O)NC(=O)[C@@H](Cc1ccc2ccccc2c1)NC(=O)[C@@H](Cc1ccc(O)cc1)NC(=O)CCCCCNC(=O)CN1CCN(CC(=O)O)CCN(CC(=O)O)CCN(CC(=O)O)CC1)[C@@H](C)O)C(=O)NC1(C(=O)N[C@@H](Cc2ccc(O)cc2)C(N)=O)CCN(C(=N)N)CC1` [Compound 185] ({DOTA-Ahx}-[dY][d2Nal]NTF[azaGly]L[Api(1-amidino)]Y-NH2), the Ki was less than 10 nM.
